Among the test systems are COLO 205 colon; UACC-257 melanoma; OVCAR-3 ovarian; LOX IMVI melanoma; SK-MEL-28 melanoma; RXF 393 renal; SF-295 CNS; MDA-MB-231 breast; SR leukemia; MOLT-4 leukemia; SK-MEL-2 melanoma; MALME-3M melanoma.
What all share (test): NCI tumour cell line growth inhibition, 48 h

Values joined by “and” are separate entries in the source; they are usually repeats but may differ in a detail not shown here. Equal entries are not always repeated.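 Step 1: Grow cells in 96-well plates. Step 2: Expose to compound for 48 hours at 5 concentrations. Step 3: Interpolate endpoints linearly; if unreached, use highest concentration. GI50 marks 50% less growth. At the TGI there is no net growth.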 *1 amine or outer side, *2 acyl side, *3 side chain or, on linkers, in order; H or OH if unused. Where a SMILES comes first, the peptide text is derived from it. Bridges are numbered along the chain shown (N, C = ends). Roman numbers before positions name the chains, in order. [ ]: non-standard residue; d: D form. Actinocin(1to9) = Cc1c2oc3c(C)ccc(C(=O)[*:2])c3nc-2c(C(=O)[*:1])c(N)c1=O; NMeV = CN[CH](C(=O)O)C(C)C; Sar = CNCC(=O)O A value given as a limit tells only on which side of the number the result lay.

As for `CN1CCOC1(C)c1ccccc1` (stereo not given), the TGI in the assay on COLO 205 colon, in the assay with UACC-257 melanoma, in the assay on OVCAR-3 ovarian, in the assay on LOX IMVI melanoma, with SK-MEL-28 melanoma and in the assay on RXF 393 renal was over 100 µM in each case. For the same compound, the TGI in the assay on SF-295 CNS, in the assay on MDA-MB-231 breast, with SR leukemia, in the assay with MOLT-4 leukemia, with SK-MEL-2 melanoma and with MALME-3M melanoma was over 100 µM each time.

`CC(=O)OC1CCn2c1nc1c2C(=O)C=C(N2CC2)C1=O` (stereo not given): the TGI was found to be 0.219 µM in the assay with COLO 205 colon; 1.02 µM in the assay with UACC-257 melanoma; 0.546 µM with OVCAR-3 ovarian; 0.275 µM in the assay with LOX IMVI melanoma; 0.147 µM with SK-MEL-28 melanoma; 0.241 µM in the assay on RXF 393 renal. In addition, the TGI in the assay with SF-295 CNS amounted to 5.61 µM; with MDA-MB-231 breast, 3.92 µM; with SR leukemia, 0.346 µM; in the assay on MOLT-4 leukemia it was 0.208 µM; with SK-MEL-2 melanoma it was 0.439 µM; in the assay on MALME-3M melanoma it was 0.0872 µM.

Turning to `COC(=O)c1cc(C#N)[nH]c1-c1ccc(Br)s1`, the TGI in the assay with COLO 205 colon was 29.1 µM; in the assay with UACC-257 melanoma, 24.9 µM; with OVCAR-3 ovarian, 15.9 µM; in the assay with LOX IMVI melanoma it was 23.1 µM; in the assay on SK-MEL-28 melanoma, 24.4 µM; in the assay with RXF 393 renal, 19.4 µM. For the same compound, the TGI in the assay on SF-295 CNS was 21.1 µM; in the assay with MDA-MB-231 breast, 30.7 µM; in the assay on SR leukemia, over 51.9 µM; in the assay with MOLT-4 leukemia, 64.9 µM; with SK-MEL-2 melanoma, 18.6 µM; in the assay on MALME-3M melanoma, 19.7 µM.

On to `Cc1cc(N(C)c2ccccc2)nc(N(C)c2ccccc2)n1`, for which the TGI worked out at 49.1 µM in the assay on COLO 205 colon; 57.7 µM in the assay with UACC-257 melanoma; 70.4 µM in the assay with OVCAR-3 ovarian; 27.9 µM in the assay on LOX IMVI melanoma; 98 µM in the assay on SK-MEL-28 melanoma; 59.5 µM with RXF 393 renal. Besides, the TGI was found to be 92.5 µM in the assay with SF-295 CNS; 78.9 µM in the assay on MDA-MB-231 breast; 55.5 µM in the assay with SR leukemia; 99.9 µM in the assay on MOLT-4 leukemia; 36.9 µM with SK-MEL-2 melanoma; 55.8 µM with MALME-3M melanoma.

Take `C[C@H]1[C@H]2[C@H](C[C@@]3(C)C4=CC[C@H]5C(C)(C)[C@@H](OC6OCC(O)C(O)C6O)CC[C@@]56C[C@@]46CC[C@]23C)O[C@@]2(O)[C@@H]1OC(C)(C)[C@H]2O` (stereo not given in full): the TGI in the assay on COLO 205 colon worked out at 16.1 µM; in the assay with UACC-257 melanoma, 4.7 µM; with OVCAR-3 ovarian, 9.61 µM; in the assay on LOX IMVI melanoma, 6.28 µM; in the assay with SK-MEL-28 melanoma, 6.23 µM; with RXF 393 renal, 3.71 µM. Further, the TGI worked out at 6.47 µM in the assay on SF-295 CNS; 6.9 µM in the assay on MDA-MB-231 breast; 9.01 µM with SR leukemia; 24.2 µM with MOLT-4 leukemia; 11.5 µM with SK-MEL-2 melanoma; 3.79 µM in the assay with MALME-3M melanoma.

`COc1cc2c(cc1OC)C1CN3CCCC3C(O)C1c1cc(OC)c(OC)cc1-2` (stereo not given): the TGI in the assay on COLO 205 colon, in the assay on UACC-257 melanoma, in the assay on LOX IMVI melanoma, in the assay with SK-MEL-28 melanoma, in the assay on RXF 393 renal and in the assay with SF-295 CNS was over 100 µM throughout. The TGI in the assay on MDA-MB-231 breast, in the assay with SR leukemia, with MOLT-4 leukemia, in the assay on SK-MEL-2 melanoma and in the assay on MALME-3M melanoma was over 100 µM in each case.

Consider `CSc1ncc2c(C#N)c3n(C)c4ccccc4n3c(=O)c2n1`, for which the TGI in the assay with COLO 205 colon, in the assay with UACC-257 melanoma, with OVCAR-3 ovarian, with LOX IMVI melanoma, in the assay with SK-MEL-28 melanoma and with RXF 393 renal was over 100 µM each time. The TGI in the assay with SF-295 CNS, in the assay on MDA-MB-231 breast, with SR leukemia, in the assay with MOLT-4 leukemia, in the assay with SK-MEL-2 melanoma and with MALME-3M melanoma was over 100 µM throughout.

Take `O=C(Cn1c2ccc(Br)cc2c2nc3ccccc3nc21)NNC(=O)NC1CCCCC1`: the TGI with COLO 205 colon, in the assay on UACC-257 melanoma, in the assay with OVCAR-3 ovarian, in the assay on LOX IMVI melanoma, in the assay with SK-MEL-28 melanoma and in the assay with RXF 393 renal was over 100 µM throughout. The TGI with SF-295 CNS is over 100 µM; in the assay with MDA-MB-231 breast it was over 100 µM; in the assay with SR leukemia it was over 100 µM; with MOLT-4 leukemia, 67.1 µM; with SK-MEL-2 melanoma, over 100 µM; in the assay with MALME-3M melanoma, over 100 µM.

With `CCOC(=O)/C1=C(\C)N(Cc2ccccc2)C(=O)c2ccccc2C(=O)c2c(OC(C)=O)ccc(OC(C)=O)c21`, the TGI in the assay with COLO 205 colon is over 100 µM; in the assay on UACC-257 melanoma, over 100 µM; in the assay with OVCAR-3 ovarian, 80.9 µM; with LOX IMVI melanoma, over 100 µM; in the assay with SK-MEL-28 melanoma, over 100 µM; with RXF 393 renal, 93 µM. In addition, the TGI in the assay on SF-295 CNS, with MDA-MB-231 breast, in the assay on SR leukemia, with MOLT-4 leukemia, with SK-MEL-2 melanoma and with MALME-3M melanoma was over 100 µM throughout.

In the case of `COc1ccc(CC2NC(=O)C(NC(=O)c3c4nc5c(C(=O)NC6C(=O)NC(Cc7ccc(OC)cc7)C(=O)N7CCCC7C(=O)N(C)CC(=O)N(C)C(C(C)C)C(=O)OC6C)ccc(C)c5oc-4c(C)c(=O)c3N)C(C)OC(=O)C(C(C)C)N(C)C(=O)CN(C)C(=O)C3CCCN3C2=O)cc1` (stereo not given) (I: TY(Me)P[Sar][NMeV] / II: TY(Me)P[Sar][NMeV]; ester I:1-I:C, II:1-II:C; linker I:N-II:N via Actinocin(1to9); configuration not given here), the TGI in the assay on COLO 205 colon is 0.0172 µM; with UACC-257 melanoma, 0.0349 µM; in the assay on OVCAR-3 ovarian, 0.025 µM and 0.0737 µM; in the assay with LOX IMVI melanoma, 0.0144 µM; in the assay with RXF 393 renal, 0.0203 µM; in the assay with SF-295 CNS, over 100 µM. Besides, the TGI in the assay with MDA-MB-231 breast is 0.731 µM; with SR leukemia, under 0.001 µM; with SK-MEL-2 melanoma it was 0.00549 µM; in the assay on MALME-3M melanoma, 0.0374 µM. Moreover, the GI50 with OVCAR-3 ovarian was under 0.001 µM.

As to `Cc1cccc2c(N)c3cccc(C(=O)NCCNCCN)c3nc12`, the TGI is over 33.4 µM in the assay with COLO 205 colon; 99.3 µM in the assay on UACC-257 melanoma; over 93.7 µM with OVCAR-3 ovarian; 39.9 µM in the assay with LOX IMVI melanoma; 36 µM with SK-MEL-28 melanoma; 36.1 µM in the assay with RXF 393 renal. In addition, the TGI was over 100 µM in the assay on SF-295 CNS; 36.1 µM with MDA-MB-231 breast; over 100 µM with SR leukemia; over 96.1 µM in the assay on MOLT-4 leukemia; 28.5 µM in the assay on SK-MEL-2 melanoma; 36.2 µM with MALME-3M melanoma.

Values taken from PubChem BioAssay (NCI).
